# Measurements: ChEMBL document CHEMBL5518225, “Mechanism-Based Macrocyclic Inhibitors of Serine Proteases” (J Med Chem, 2024)
# Tests used:
# [1] = biological target: Coagulation factor X, Homo sapiens (UniProt P00742); test: Inhibition of factor Xa (unknown origin) using Bz-lle-Glu-Gly-Arg-pNA as chromogenic substrate preincubated for 30 mins followed by substrate addition by absorbance based analysis
# Serine protease hepsin = Serine protease hepsin (Homo sapiens, UniProt P05981); test: Inhibition of C-terminal 10-His tagged human recombinant hepsin (Arg45 to Leu417 residues) using Boc-QAR-AMC as substrate preincubated for 30 mins followed by substrate addition and measured by fluorescence based analysis
# [2] = Half life in male CD-1 mouse at 13 to 20 mg/kg, ip administered as single dose and measured upto 24 hrs by LC-MS/MS analysis; format: ADME, organism-based; conditions: in vivo, dose 13-20 mg/kg
# [3] = Drug uptake in male CD-1 mouse at 13 to 20 mg/kg, ip administered as single dose and measured upto 24 hrs by LC-MS/MS analysis; format: ADME, organism-based; conditions: in vivo, dose 13-20 mg/kg
# [4] = Metabolic stability in mouse plasma assessed as compound remaining measured at 2 hrs; format: ADME, cell-free; conditions: read-out: Stability
# [5] = Metabolic stability in human plasma assessed as compound remaining measured at 2 hrs; format: ADME, cell-free; conditions: read-out: Stability
# [6] = Metabolic stability in mouse plasma assessed as half life; format: ADME, cell-free
# [7] = Metabolic stability in human plasma assessed as half life; format: ADME, cell-free
# [8] = Metabolic stability in mouse plasma assessed as drug degradation measured after 2 hrs; format: ADME, cell-free
# [9] = biological target: Transmembrane protease serine 2 (Homo sapiens, UniProt O15393); test: Inhibition of N-terminal 6His-tagged human recombinant TMPRSS2 (106 to 492 residues) using Boc-QAR-AMC as substrate preincubated for 30 mins followed by substrate addition and measured by fluorescence based analysis
# [10] = biological target: T1, Hepatocyte growth factor activator serine protease (Homo sapiens, UniProt Q04756); test: Inhibition of C-terminal 10-His tagged human recombinant HGFA (Gln36 to Ser655 residues) using Boc-QLR-AMC as substrate preincubated for 30 mins followed by substrate addition and measured by fluorescence based analysis
# T1 sequence (Q04756 whole entry): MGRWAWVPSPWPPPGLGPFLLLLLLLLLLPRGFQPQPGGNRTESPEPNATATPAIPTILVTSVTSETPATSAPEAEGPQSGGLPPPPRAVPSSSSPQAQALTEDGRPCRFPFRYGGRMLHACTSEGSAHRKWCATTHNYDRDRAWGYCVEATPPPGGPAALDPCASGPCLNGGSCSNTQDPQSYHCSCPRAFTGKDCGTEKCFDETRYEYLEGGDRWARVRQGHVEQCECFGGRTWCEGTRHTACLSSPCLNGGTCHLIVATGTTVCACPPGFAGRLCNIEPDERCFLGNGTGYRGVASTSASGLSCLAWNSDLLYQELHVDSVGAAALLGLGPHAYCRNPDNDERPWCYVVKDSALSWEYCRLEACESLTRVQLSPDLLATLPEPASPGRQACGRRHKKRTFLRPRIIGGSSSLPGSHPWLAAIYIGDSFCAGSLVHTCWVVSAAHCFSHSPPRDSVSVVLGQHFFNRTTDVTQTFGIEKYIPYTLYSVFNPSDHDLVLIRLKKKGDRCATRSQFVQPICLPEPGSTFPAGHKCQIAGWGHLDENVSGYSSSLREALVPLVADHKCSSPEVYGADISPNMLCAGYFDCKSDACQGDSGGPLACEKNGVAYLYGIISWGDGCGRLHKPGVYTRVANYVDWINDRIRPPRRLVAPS
# [11] = Elimination half life in male CD-1 mouse at 13 to 20 mg/kg, ip administered as single dose and measured upto 24 hrs by LC-MS/MS analysis; format: ADME, organism-based; conditions: in vivo, dose 13-20 mg/kg
# [12] = biological target: T2, Suppressor of tumorigenicity 14 protein (Homo sapiens, UniProt Q9Y5Y6); test: Inhibition of N-terminal Met/6His tagged human recombinant matriptase catalytic domain (Gly596 to Val855 residues) using Boc-QAR-AMC as substrate preincubated for 30 mins followed by substrate addition and measured by fluorescence based analysis
# T2 sequence (Q9Y5Y6 whole entry): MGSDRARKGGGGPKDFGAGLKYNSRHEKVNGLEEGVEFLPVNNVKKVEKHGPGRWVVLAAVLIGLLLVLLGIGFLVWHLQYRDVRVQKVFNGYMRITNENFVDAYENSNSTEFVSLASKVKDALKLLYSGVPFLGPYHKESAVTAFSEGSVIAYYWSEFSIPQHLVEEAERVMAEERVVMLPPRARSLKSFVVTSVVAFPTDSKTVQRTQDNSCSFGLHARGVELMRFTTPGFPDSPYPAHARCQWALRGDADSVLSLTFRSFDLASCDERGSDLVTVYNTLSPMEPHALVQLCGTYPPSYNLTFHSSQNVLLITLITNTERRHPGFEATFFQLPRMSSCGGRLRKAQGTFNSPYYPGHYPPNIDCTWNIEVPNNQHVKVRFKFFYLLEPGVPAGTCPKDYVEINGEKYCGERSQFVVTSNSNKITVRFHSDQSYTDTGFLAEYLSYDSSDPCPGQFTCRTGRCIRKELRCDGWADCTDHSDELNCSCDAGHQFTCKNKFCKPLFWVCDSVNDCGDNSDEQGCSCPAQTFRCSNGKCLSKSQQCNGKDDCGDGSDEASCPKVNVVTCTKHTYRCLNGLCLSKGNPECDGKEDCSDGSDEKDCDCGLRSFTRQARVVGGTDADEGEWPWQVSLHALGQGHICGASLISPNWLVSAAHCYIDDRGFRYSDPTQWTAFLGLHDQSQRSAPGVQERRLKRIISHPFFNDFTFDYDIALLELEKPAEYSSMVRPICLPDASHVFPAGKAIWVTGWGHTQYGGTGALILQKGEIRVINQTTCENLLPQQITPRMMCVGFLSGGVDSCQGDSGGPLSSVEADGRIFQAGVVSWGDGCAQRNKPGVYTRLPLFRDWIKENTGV
# Homo sapiens [13] = species: Homo sapiens; test: Selectivity index, ratio of IC50 for inhibition of N-terminal Met/6His tagged human recombinant matriptase catalytic domain (Gly596 to Val855 residues) to IC50 for inhibition of N-terminal 6His-tagged human recombinant TMPRSS2 (106 to 492 residues)
# Homo sapiens [14] = species: Homo sapiens; test: Selectivity index, ratio of IC50 for inhibition of C-terminal 10-His tagged human recombinant HGFA (Gln36 to Ser655 residues) to IC50 for inhibition of N-terminal 6His-tagged human recombinant TMPRSS2 (106 to 492 residues)
# Homo sapiens [15] = species: Homo sapiens; test: Selectivity index, ratio of IC50 for inhibition of C-terminal 10-His tagged human recombinant hepsin (Arg45 to Leu417 residues) to IC50 for inhibition of N-terminal 6His-tagged human recombinant TMPRSS2 (106 to 492 residues)
SMILES,IC50 [1] [nM],IC50 (Serine protease hepsin) [nM],remaining at 2 h [4] [%],remaining at 2 h [5] [%],t1/2 [6] [h],t1/2 [7] [h],IC50 [9] [nM],IC50 [12] [nM],also measured
CC(=O)N[C@H]1Cc2ccc(cc2)Oc2cccc(c2)C[C@@H](C(=O)N[C@@H](CCCNC(=N)N)C(=O)c2nc3ccccc3s2)NC(=O)[C@H](CC(C)C)NC1=O,13000,0.2,–,–,–,–,–,–,t1/2 [2]: 4.5 h; Drug uptake [3]: Active
CC(=O)N[C@H]1Cc2ccc(cc2)OC/C=C\CNC(=O)CC[C@@H](C(=O)N[C@@H](CCCNC(=N)N)C(=O)c2nc3ccccc3s2)NC(=O)[C@H](CC(C)C)NC1=O,> 20000,–,66,76,3.93,> 4.82,–,–,–
CC(=O)N[C@H]1Cc2ccc(cc2)OCCCC[C@@H](C(=O)N[C@@H](CCCNC(=N)N)C(=O)c2nc3ccccc3s2)NC(=O)[C@@H](Cc2c[nH]c3ccccc23)NC1=O,–,–,100,53,–,1.95,3.7,–,Stability [8]: Stable
CC(=O)N[C@H]1Cc2cn(nn2)CCCC[C@H](C(=O)N[C@@H](CCCNC(=N)N)C(=O)c2nc3ccccc3s2)NC(=O)[C@H](CC(C)C)NC1=O,–,–,83,85,> 4.82,> 4.82,–,–,–
CC(=O)N[C@H]1Cc2ccc(cc2)OC/C=C/C[C@@H](C(=O)N[C@@H](CCCNC(=N)N)C(=O)c2nc3ccccc3s2)NC(=O)[C@H](CC(C)C)NC1=O,> 20000,–,86,77,> 4.82,> 4.82,1.2,3.4,IC50 [10]: 26 nM; beta t1/2 [11]: < 0.5 h
CC(=O)N[C@H]1Cc2ccc(cc2)OCCCC[C@@H](C(=O)N[C@@H](CCCNC(=N)N)C(=O)c2nc3ccccc3s2)NC(=O)[C@H](Cc2c[nH]c3ccccc23)NC1=O,–,2.8,78,67,> 4.82,3.82,–,–,–
CC(=O)N[C@H]1Cc2ccc(cc2)OC/C=C\CNC(=O)C[C@@H](C(=O)N[C@@H](CCCNC(=N)N)C(=O)c2nc3ccccc3s2)NC(=O)[C@H](CC(C)C)NC1=O,> 20000,–,95,81,> 4.82,> 4.82,22,54,Stability [8]: Stable
CC(=O)N[C@H]1Cc2ccc(cc2)OCCCC[C@@H](C(=O)N[C@@H](CCCNC(=N)N)C(=O)c2nc3ccccc3s2)NC(=O)[C@H](CC(C)C)NC1=O,–,–,98,79,> 4.82,> 4.82,–,–,Stability [8]: Stable
CC(=O)N[C@H]1C/C=C/COc2ccc(cc2)C[C@@H](C(=O)N[C@@H](CCCNC(=N)N)C(=O)c2nc3ccccc3s2)NC(=O)[C@H](CC(C)C)NC1=O,> 20000,20,84,78,> 4.82,4.77,14,14,IC50 [10]: > 20000 nM
CC(=O)N[C@H]1Cc2cccc(c2)Oc2ccc(cc2)C[C@@H](C(=O)N[C@@H](CCCNC(=N)N)C(=O)c2nc3ccccc3s2)NC(=O)[C@H](CC(C)C)NC1=O,–,–,–,–,–,–,15,–,–
CC(=O)N[C@H]1CCCCn2cc(nn2)C[C@H](C(=O)N[C@@H](CCCNC(=N)N)C(=O)c2nc3ccccc3s2)NC(=O)[C@H](CC(C)C)NC1=O,–,–,82,83,> 4.82,> 4.82,–,–,–
CC(=O)N[C@H]1Cc2ccc(cc2)Oc2ccc(cc2)C[C@@H](C(=O)N[C@@H](CCCNC(=N)N)C(=O)c2nc3ccccc3s2)NC(=O)[C@H](CC(C)C)NC1=O,–,7.5,–,–,–,–,1.2,180,Ratio IC50 (Homo sapiens [13]): 144; IC50 [10]: 250 nM; Ratio IC50 (Homo sapiens [14]): 200; Ratio IC50 (Homo sapiens [15]): 6
CC(=O)N[C@H]1Cc2ccc(cc2)OCCCC[C@@H](C(=O)N[C@@H](CCCNC(=N)N)C(=O)c2nc3ccccc3s2)NC(=O)[C@H](Cc2ccccc2)NC1=O,–,–,80,65,> 4.82,3.15,16,–,–
